Measurements as given in US20100144712A1 (priority 2007, published 2010).
Converted amounts (≈) assume the structure as drawn. Where two headings read alike, the source gives them in different places. One block for each molecule: values may come before it.

Columns and labels:
Format in all cases: cell-based
[1] = tested on: Candida albican ATCC MYA-1003; experiment: In vitro antifungal activity (MIC80), Candida albican ATCC MYA-1003; conditions: Table 2, MYA 1003
In short: (§1)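 Broth dilution in RPMI 1640 with 2% (v/v) final DMSO, test range 0.25 to 256 […]. Yeast inoculum 1.0×10^3–5.0×10^3 CFU/ml, growth read with alamarBlue, run twice. MIC80 is the lowest concentration giving 80% growth reduction against untreated control.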

[2] = tested on: Candida albican ATCC 90873; experiment: In vitro antifungal activity (MIC80), Candida albican ATCC 90873; conditions: Table 2, ATCC 90873
In short: as §1

[3] = tested on: Candida albican ATCC 62342; experiment: In vitro antifungal activity (MIC80), Candida albican ATCC 62342; conditions: Table 2, 62342
In short: as §1

[4] = tested on: Candida albican ATCC 64124; experiment: In vitro antifungal activity (MIC80), Candida albican ATCC 64124; conditions: Table 2, 64124
In short: as §1

[5] = tested on: Aspergillus terreus ATCC 28301; experiment: In vitro antifungal activity (MIC80), Aspergillus terreus ATCC 28301; conditions: Table 3, ATCC 28301
Experimental: (§2) In vitro antifungal activities of the inventive antifungal compounds were evaluated using test strains including Candida albican (ATCC 90873, 204276, 62342, 64124, 64550, 96901, MYA-573, MYA-574, MYA-575, MYA-576, MYA-1003) and Aspergillus fumigatus (ATCC 16424). Test samples and positive control samples were prepared by dissolving the inventive compounds and comparative compounds, i.e., amphotericin B, fluconazole and itraconazole, in DMSO, respectively, and each successively diluted with medium to obtain test and positive control solutions having test compound concentrations of 0.125 μg/ml to a maximum concentration not generating turbidity. Minimal inhibitory concentration (MIC80) of each compound was determined as the lowest concentration of the test compounds required to reduce growth by 80% relative to a control strain not treated.
(§3) 3) Preparation of test samples: the inventive compounds and comparative compounds were each diluted with DMSO to obtain 1 to 2 ml of a test sample in a concentration of 100-folds of the determining maximum concentration (256 μg/ml).
(§4) The test samples were each successively diluted with RPMI 1640 to obtain test solutions having concentrations of […] in a 12×75 mm sterilized disposable culture tube. The final concentration of DMSO was adjusted to […] (v/v).
(§5) Candida albican strains were each subcultured in Sabourad Dextrose Agar, YM Agar or Potato Dextrose Agar medium at 35° C. for 2˜3 days. In the case of yeasts, a single colony was taken from prominent colonies and suspended in 0.85% sterile physiological saline solution and the turbidity of the suspension was adjusted to 80˜82% at 530 nm, and then diluted 50-fold with RPMI 1640 medium to 1.0×10^3˜5.0×10^3 CFU/ml. The turbidity of fungi was adjusted to 80˜82% and the suspension was diluted 50-fold to […]. Aspergillus fumigatus strains were subcultured in Malt Extract Agar for 7˜10 days, and a single colony was taken from prominent colonies and suspended in 0.85% sterile physiological saline solution and the suspension was adjusted to 0.108 at 530 nm, and then diluted 1000-fold with RPMI 1640 medium to 0.4×10^2˜5×10^4 CFU/ml. The turbidity of fungi was adjusted to 80˜82% and the suspension was diluted 50-fold to 0.4102˜0.5104 CFU/ml.
(§6) The strain solutions thus obtained were each seeded into a sterilized 96-well microplate, 0.1 ml of each test solution were added thereto, and […] of alamarblue was treated to each well (Biosource, #DAL1100). This procedure was repeated 2 times.
(§7) Minimal inhibitory concentration (MIC80) of each compound was determined as the lowest concentration of the test compounds required to reduce growth by 80% relative to a control strain not treated.
(§8) MIC80 of each of the compounds of which antifungal activities can be confirmed by Table 2 was determined using other test strains, i.e., Aspergillus fumigatus ATCC 16424 and MYA-1163, Aspergillus terreus ATCC 28301, Aspergillus flavus ATCC MYA-1004, and Aspergillus niger ATCC 9142.

[6] = tested on: Aspergillus flavus ATCC MYA-1004; experiment: In vitro antifungal activity (MIC80), Aspergillus flavus ATCC MYA-1004; conditions: Table 3, MYA-1004
Experimental: as §2, §3, §4, §5, §6, §7, §8

[7] = tested on: Candida albican ATCC MYA-575; experiment: In vitro antifungal activity (MIC80), Candida albican ATCC MYA-575; conditions: Table 2, MYA 575
In short: as §1

[8] = tested on: Aspergillus fumigatus MYA-1163; experiment: In vitro antifungal activity (MIC80), Aspergillus fumigatus MYA-1163; conditions: Table 3, MYA-1163
Experimental: as §2, §3, §4, §5, §6, §7, §8

[9] = tested on: Candida albican ATCC 96901; experiment: In vitro antifungal activity (MIC80), Candida albican ATCC 96901; conditions: Table 2, ATCC 96901
In short: as §1

[10] = tested on: Candida albican ATCC MYA-573; experiment: In vitro antifungal activity (MIC80), Candida albican ATCC MYA-573; conditions: Table 2, MYA 573
In short: as §1

[11] = tested on: Candida albican ATCC 64550; experiment: In vitro antifungal activity (MIC80), Candida albican ATCC 64550; conditions: Table 2, 64550
In short: as §1

[12] = tested on: Aspergillus niger ATCC 9142; experiment: In vitro antifungal activity (MIC80), Aspergillus niger ATCC 9142; conditions: Table 3, ATCC 9142
Experimental: as §2, §3, §4, §5, §6, §7, §8

[13] = tested on: Candida albican ATCC MYA-574; experiment: In vitro antifungal activity (MIC80), Candida albican ATCC MYA-574; conditions: Table 2, MYA 574
In short: as §1

[14] = tested on: Candida albican ATCC MYA-576; experiment: In vitro antifungal activity (MIC80), Candida albican ATCC MYA-576; conditions: Table 2, MYA 576
In short: as §1

[15] = tested on: Aspergillus fumigatus (ATCC 16424); experiment: In vitro antifungal activity (MIC80), Aspergillus fumigatus ATCC 16424; conditions: for MIC80: Aspergillus fumigatus, read-out: Minimal inhibitory concentration (MIC80)
In short: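 Broth dilution in RPMI 1640 with 2% (v/v) final DMSO; A. fumigatus inoculum from Malt Extract Agar subculture diluted 1000-fold to 0.4×10^2˜5×10^4 CFU/ml, alamarblue added, repeated 2 times. MIC80 is lowest concentration reducing growth 80% versus untreated control.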

[16] = Candida, read-out: Minimal inhibitory concentration (MIC80)

Minimal inhibitory concentration (MIC80) [1]: 0.5 µg/mL (≈ 0.541 µM)
Minimal inhibitory concentration (MIC80) [2]: 1 to 2 µg/mL
Minimal inhibitory concentration (MIC80) [3]: 0.5 µg/mL (≈ 0.541 µM)
Minimal inhibitory concentration (MIC80) [4]: 0.5 µg/mL (≈ 0.541 µM)
Minimal inhibitory concentration (MIC80) [5]: 4 µg/mL (≈ 4.33 µM)
Minimal inhibitory concentration (MIC80) [6]: 4 µg/mL (≈ 4.33 µM)
Minimal inhibitory concentration (MIC80) [7]: 0.5 µg/mL (≈ 0.541 µM)
Minimal inhibitory concentration (MIC80) [8]: 2 µg/mL (≈ 2.16 µM)
Minimal inhibitory concentration (MIC80) [9]: 0.25 µg/mL (≈ 0.271 µM)
Minimal inhibitory concentration (MIC80) [10]: 0.5 µg/mL (≈ 0.541 µM)
Minimal inhibitory concentration (MIC80) [11]: 0.5 µg/mL (≈ 0.541 µM)
Minimal inhibitory concentration (MIC80) [12]: 0.5 µg/mL (≈ 0.541 µM)
Minimal inhibitory concentration (MIC80) [13]: 0.25 µg/mL (≈ 0.271 µM)
Minimal inhibitory concentration (MIC80) [14]: 0.5 µg/mL (≈ 0.541 µM)
Minimal inhibitory concentration (MIC80) ([15]; Table 2, ATCC 16424): 1 to 2 µg/mL
Minimal inhibitory concentration (MIC80) ([15]; Table 3, ATCC 16424): 0.5 µg/mL (≈ 0.541 µM)
Structure (SMILES): C[C@@H]1[C@H](O)[C@@H](C)/C=C/C=C/C=C/C=C/C=C/C=C/C=C/[C@H](O[C@@H]2O[C@H](C)[C@@H](O)[C@H](N)[C@@H]2O)C[C@@H]2O[C@](O)(C[C@@H](O)C[C@@H](O)[C@H](O)CC[C@@H](O)C[C@@H](O)CC(=O)O[C@H]1C)C[C@H](O)[C@H]2C(=O)O [A, amphotericin B, reference compound]

MIC80 [1, 16]: > 128 µg/mL
MIC80 ([2]; Candida, ATCC90873, read-out: Minimal inhibitory concentration (MIC80)): 0.125 µg/mL (≈ 0.248 µM)
MIC80 ([3]; Candida, ATCC62342, read-out: Minimal inhibitory concentration (MIC80)): 0.125 µg/mL (≈ 0.248 µM)
MIC80 ([4]; Candida, ATCC64124, read-out: Minimal inhibitory concentration (MIC80)): 8 µg/mL (≈ 15.8 µM)
MIC80 ([5]; Aspergillus terreus, ATCC28301, read-out: Minimal inhibitory concentration (MIC80)): 1 µg/mL (≈ 1.98 µM)
MIC80 ([6]; Aspergillus flavus, read-out: Minimal inhibitory concentration (MIC80)): 1 µg/mL (≈ 1.98 µM)
MIC80 [7, 16]: 0.125 µg/mL (≈ 0.248 µM)
MIC80 ([8]; Aspergillus fumigatus, MYA1163, read-out: Minimal inhibitory concentration (MIC80)): 1 µg/mL (≈ 1.98 µM)
MIC80 ([9]; Candida, ATCC96901, read-out: Minimal inhibitory concentration (MIC80)): 2 µg/mL (≈ 3.96 µM)
MIC80 [10, 16]: 0.125 µg/mL (≈ 0.248 µM)
MIC80 ([11]; Candida, ATCC64550, read-out: Minimal inhibitory concentration (MIC80)): 0.5 µg/mL (≈ 0.99 µM)
MIC80 ([12]; Aspergillus niger, ATCC9142, read-out: Minimal inhibitory concentration (MIC80)): 2 µg/mL (≈ 3.96 µM)
MIC80 [13, 16]: 0.25 µg/mL (≈ 0.495 µM)
MIC80 [14, 16]: 0.125 µg/mL (≈ 0.248 µM)
MIC80 ([15]; ATCC16424, Table 2, ATCC 16424): 0.5 µg/mL (≈ 0.99 µM)
MIC80 ([15]; ATCC16424, Table 3, ATCC 16424): 0.5 µg/mL (≈ 0.99 µM)
Structure (SMILES): C[C@@H](N1CCN(c2nc3ccc(Cl)cc3s2)CC1)[C@](O)(Cn1cncn1)c1ccc(F)cc1F [Example 4, (2R,3R)-3-(4-(6-chlorobenzothiazol-2-yl)piperazin-1-yl)-2-(2,4-difluorophenyl)-1-(1H-1,2,4-triazol-1-yl)butan-2-ol]
